The values below come from patent publication US20250326748A1, “COMPOUNDS AND METHODS FOR MODULATING SPLICING” (REMIX THERAPEUTICS INC., priority 2022, published 2025).

The test system of one data set is HiBiT-tagged MYB protein. As to the kind of experiment: HiBiT protein abundance assay, MYB (K562 HiBiT knock-in). In kind it is cell-based, human. Conditions: HiBiT knock-in cells, 24 hours. In short, it runs like this: (§1)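 Endogenously HiBiT-tagged K562 knock-in lines treated 24 h at 37 °C with 10-point 3-fold dilutions (top 10 μM final, DMSO ≤0.25%) in IMDM+1% FBS. Lytic Nano-Glo luminescence normalized to DMSO and unmodified K562 controls; four-parameter fit gives 50%-abundance concentration (IC50).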

The next data set relates to Target C. As to the kind of experiment: HiBiT protein abundance assay, Target C (K562 HiBiT knock-in). In kind it is cell-based, human. Conditions: HiBiT knock-in cells, 24 hours. The method in brief: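 K562 HiBiT knock-in cells (10000/well) in IMDM + 1% FBS were treated for 24 h at 37° C. with a 10-point 3-fold dilution series (top 10 μM final), with DMSO ≤0.25%. Unmodified K562 served as baseline. HiBiT lytic luminescence was normalized to controls, and IC50 was interpolated at 50% from a four-parameter fit.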
Background: With HiBiT, luminescence reflects the tagged protein that the partner subunit can reach.

The test system of a further data set is HiBiT-tagged HTT protein. The data set can be described thus: HiBiT protein abundance assay, HTT (K562 HiBiT knock-in). It counts as cell-based, human. Conditions: HiBiT knock-in cells, 24 hours. The method in brief: as §1
The subject of the next data set is K562 cells. The data set can be described thus: Cell viability, Cell Titer Glo 2.0 assay, K562. Conditions: 72 hours. In general terms: Cellular ATP, detected with luciferase, serves as a proxy for viable cell number.

Method for K562 cells: Compounds described herein were screened for toxicity in K562 (human chronic myelogenous leukemia) and SH-SY5Y (human neuroblastoma) cells using a Cell Titer Glo 2.0 assay.
• Promega CellTiter-Glo® 2.0 Cell Viability Assay (cat #G9241) • Corning 384-well TC-treated microplates (cat #3570)
Cells were plated at 500 cells/well (K562 cells) in 45 μL of IMDM supplemented with 10% FBS in a 384-well opaque plate. Wells containing only medium were used as a blank control. Test compounds (e.g., compounds of Formula (I) or (II)) were first serially diluted in DMSO then diluted 1:100 with IMDM+10% FBS. The final concentration of DMSO was 0.1% in each well. The cells were incubated for 72 hours at 37° C. and 5% CO2 before assaying with Cell Titer Glo 2.0 reagent.

For the compound `Cn1cc2cc(-c3ccc4cc(N5CC[C@H](NC(C)(C)C)C5)cnc4n3)c(O)cc2n1` (single isomer, unassigned) [Compound 200], the IC50 in the data set with HiBiT-tagged MYB protein lay in the range of 0.1 to 1 µM; in the data set on Target C it was 1 to 10 µM; with HiBiT-tagged HTT protein, 1 to 10 µM. For the same compound, in the data set on K562 cells, the “Effect on Cell Viability, K562” value is listed as “B (100-1000 nM)”.

With `CNC1CCN(c2cnc3nc(-c4cc(F)c5nc(C)cn5c4)ccc3c2)C1` (stereo not drawn) [Compound 100, 1-(7-{8-fluoro-2-methylimidazo[1,2-a]pyridin-6-yl}-1,8-naphthyridin-3-yl)-N-methylpyrrolidin-3-amine], the concentration for half-maximal inhibition (IC50) in the data set on HiBiT-tagged MYB protein is less than 0.1 µM; in the data set with Target C, 0.1 to 1 µM; in the data set with HiBiT-tagged HTT protein, 0.1 to 1 µM. Also, the “Effect on Cell Viability, K562” value with K562 cells is recorded as “B (100-1000 nM)”.

`Cn1cc2cc(-c3cnc4nc(N5CCNCC5)cc(Cl)c4c3)cc(F)c2n1` [Compound 101, 4-chloro-6-(7-fluoro-2-methyl-2H-indazol-5-yl)-2-(piperazin-1-yl)-1,8-naphthyridine]: the half-inhibitory concentration (IC50) in the data set with HiBiT-tagged MYB protein is less than 0.1 µM; with Target C, 1 to 10 µM; in the data set with HiBiT-tagged HTT protein, 1 to 10 µM. In the data set on K562 cells, the “Effect on Cell Viability, K562” value is “B (100-1000 nM)”.

Consider `Cn1cc2cc(-c3cc(Cl)c4cc(N5CCNCC5)cnc4n3)c(O)cc2n1` [Compound 102, 5-[4-chloro-6-(piperazin-1-yl)-1,8-naphthyridin-2-yl]-2-methylindazol-6-ol], for which the IC50 in the data set on HiBiT-tagged MYB protein was less than 0.1 µM; in the data set with Target C it was 0.1 to 1 µM; with HiBiT-tagged HTT protein, 0.1 to 1 µM. Besides, in the data set on K562 cells, the “Effect on Cell Viability, K562” value is recorded as “B (100-1000 nM)”.

Consider `Cn1cc2cc(-c3cc(Cl)c4cc(N5CCNCC5)cnc4n3)cc(F)c2n1` [Compound 103], for which the results for the 50% inhibitory concentration (IC50) with HiBiT-tagged MYB protein, with Target C and with HiBiT-tagged HTT protein were less than 0.1 µM, 0.1 to 1 µM and 0.1 to 1 µM, respectively. For the same compound, the “Effect on Cell Viability, K562” value in the data set with K562 cells is given as “B (100-1000 nM)”.

Consider `Cc1c(O)c(-c2cc(Cl)c3cc(N4CCNCC4)cnc3n2)cc2cn(C)nc12` [Compound 154, 5-[4-chloro-6-(piperazin-1-yl)-1,8-naphthyridin-2-yl]-2,7-dimethylindazol-6-ol], for which the values for the 50% inhibitory concentration (IC50) with HiBiT-tagged MYB protein, with Target C and in the data set on HiBiT-tagged HTT protein were less than 0.1 µM, 0.1 to 1 µM and 0.1 to 1 µM, respectively. For the same compound, the “Effect on Cell Viability, K562” value in the data set on K562 cells was “A (<100 nM)”.

Regarding `Cn1cc2cc(-c3cc(Cl)c4cc(N5CCNCC5)cnc4n3)c(O)c(F)c2n1` [Compound 155, 5-[4-chloro-6-(piperazin-1-yl)-1,8-naphthyridin-2-yl]-7-fluoro-2-methylindazol-6-ol], the 50% inhibitory concentration (IC50) was less than 0.1 µM in the data set with HiBiT-tagged MYB protein, 0.1 to 1 µM with Target C and less than 0.1 µM in the data set on HiBiT-tagged HTT protein. Further, the “Effect on Cell Viability, K562” value in the data set on K562 cells is on record as “A (<100 nM)”.

In the case of `Cc1c(O)c(-c2ncc3cc(N4CC[C@@H](N)C4)cnc3n2)cc2cn(C)nc12` [Compound 159, (R)-5-(6-(3-aminopyrrolidin-1-yl)pyrido[2,3-d]pyrimidin-2-yl)-2,7-dimethyl-2H-indazol-6-ol 2,2,2-trifluoroacetate], the concentration for half-maximal inhibition (IC50) with HiBiT-tagged MYB protein is less than 0.1 µM; in the data set on Target C, 0.1 to 1 µM; with HiBiT-tagged HTT protein, less than 0.1 µM. Further, in the data set with K562 cells, the “Effect on Cell Viability, K562” value is on record as “B (100-1000 nM)”.

For the compound `Cc1c(O)c(-c2ncc3cc(N4CC[C@H](N)C4)cnc3n2)cc2cn(C)nc12` [Compound 160, (S)-5-(6-(3-aminopyrrolidin-1-yl)pyrido[2,3-d]pyrimidin-2-yl)-2,7-dimethyl-2H-indazol-6-ol 2,2,2-trifluoroacetate], the values for the IC50 in the data set on HiBiT-tagged MYB protein, in the data set with Target C and with HiBiT-tagged HTT protein were less than 0.1 µM, 0.1 to 1 µM and less than 0.1 µM, respectively. Also, in the data set with K562 cells, the “Effect on Cell Viability, K562” value is given as “B (100-1000 nM)”.

Turning to `CNC1CCN(c2cnc3nc(-c4cc5cn(C)nc5c(C)c4O)nc(OC)c3c2)C1` (stereo not drawn) [Compound 161, 5-{4-methoxy-6-[3-(methylamino)pyrrolidin-1-yl]pyrido[2,3-d]pyrimidin-2-yl}-2,7-dimethylindazol-6-ol], the concentration for half-maximal inhibition (IC50) was less than 0.1 µM in the data set on HiBiT-tagged MYB protein, 0.1 to 1 µM with Target C and 0.1 to 1 µM in the data set with HiBiT-tagged HTT protein.

For `COc1nc(-c2cc3cn(C)nc3c(C)c2O)nc2ncc(N3CCNCC3)cc12` [Compound 162, 5-[4-methoxy-6-(piperazin-1-yl)pyrido[2,3-d]pyrimidin-2-yl]-2,7-dimethylindazol-6-ol], the figures for the 50% inhibitory concentration (IC50) with HiBiT-tagged MYB protein, with Target C and in the data set with HiBiT-tagged HTT protein were less than 0.1 µM, 0.1 to 1 µM and 0.1 to 1 µM, respectively.

Take `COc1nc(-c2cc3cn(C)nc3c(C)c2O)nc2ncc(N3CCC(N(C)C)CC3)cc12` [Compound 163, 5-{6-[4-(dimethylamino)piperidin-1-yl]-4-methoxypyrido[2,3-d]pyrimidin-2-yl}-2,7-dimethylindazol-6-ol]: the 50% inhibitory concentration (IC50) in the data set on HiBiT-tagged MYB protein was 0.1 to 1 µM; in the data set with Target C, greater than 10 µM; in the data set with HiBiT-tagged HTT protein, 1 to 10 µM. In addition, in the data set on K562 cells, the “Effect on Cell Viability, K562” value is “B (100-1000 nM)”.

Take `Cn1cc2cc(-c3cnc4cc(N5CCC(NC6CC6)C5)ccc4n3)c(O)c(F)c2n1` (stereo not drawn) [Compound 175, 5-[6-[3-(cyclopropylamino)pyrrolidin-1-yl]quinoxalin-2-yl]-7-fluoro-2-methyl-indazol-6-ol]: the IC50 in the data set on HiBiT-tagged MYB protein is less than 0.1 µM; in the data set on Target C it was 0.1 to 1 µM; in the data set on HiBiT-tagged HTT protein, less than 0.1 µM. In addition, in the data set with K562 cells, the “Effect on Cell Viability, K562” value was “A (<100 nM)”.

For the compound `Cn1cc2cc(-c3cnc4cc(N5CC[C@H](NC6CC6)C5)ccc4n3)c(O)c(F)c2n1` [Compound 176, 5-[6-[(3S)-3-(cyclopropylamino)318quinoxaline-1-yl]318quinoxaline-2-yl]-7-fluoro-2-methyl-indazol-6-ol], the IC50 in the data set with HiBiT-tagged MYB protein, with Target C and in the data set with HiBiT-tagged HTT protein was less than 0.1 µM each time. For the same compound, the “Effect on Cell Viability, K562” value with K562 cells is recorded as “A (<100 nM)”.

Take `Cn1cc2cc(-c3cnc4cc(N5CC[C@@H](NC6CC6)C5)ccc4n3)c(O)c(F)c2n1` [Compound 177, 5-[6-[(3R)-3-(cyclopropylamino)318quinoxaline-1-yl]318quinoxaline-2-yl]-7-fluoro-2-methyl-indazol-6-ol]: the half-maximal inhibitory concentration (IC50) in the data set with HiBiT-tagged MYB protein, with Target C and in the data set on HiBiT-tagged HTT protein was less than 0.1 µM each time. Further, the “Effect on Cell Viability, K562” value in the data set with K562 cells is recorded as “A (<100 nM)”.

`Cn1cc2cc(-c3cnc4nc(N5CCC(NC6CC6)C5)ccc4n3)c(O)c(F)c2n1` (stereo not drawn) [Compound 178, 5-[6-[3-(cyclopropylamino)pyrrolidin-1-yl]pyrido[2,3-b]pyrazin-2-yl]-7-fluoro-2-methyl-indazol-6-ol]: the IC50 with HiBiT-tagged MYB protein, in the data set on Target C and in the data set with HiBiT-tagged HTT protein was 0.1 to 1 µM each time. Further, in the data set on K562 cells, the “Effect on Cell Viability, K562” value is recorded as “B (100-1000 nM)”.

On to `Cc1nc2c(C)c(O)c(-c3cnc4cc(N5CCC(NC6CC6)C5)ccc4n3)cc2o1` (stereo not drawn) [Compound 182, 6-[6-[3-(cyclopropylamino)pyrrolidin-1-yl]quinoxalin-2-yl]-2,4-dimethyl-1,3-benzoxazol-5-ol], for which the half-inhibitory concentration (IC50) in the data set on HiBiT-tagged MYB protein, with Target C and with HiBiT-tagged HTT protein was less than 0.1 µM each time. In addition, the “Effect on Cell Viability, K562” value in the data set with K562 cells was “A (<100 nM)”.

As to `CNC1CCN(c2cnc3nc(-c4cc5cn(C)nc5c(C)c4O)ccc3n2)C1` (stereo not drawn) [Compound 192, 2,7-dimethyl-5-{2-[3-(methylamino)337pyrrolidine-1-yl]pyrido[2,3-b]pyrazin-6-yl}indazol-6-ol], the IC50 in the data set with HiBiT-tagged MYB protein, in the data set with Target C and in the data set with HiBiT-tagged HTT protein was 0.1 to 1 µM throughout. Besides, the “Effect on Cell Viability, K562” value with K562 cells was “B (100-1000 nM)”.

As to `CNC1CCN(c2cnc3nc(-c4cc5cn(C)nc5c(C)c4O)cc(Cl)c3n2)C1` (stereo not drawn) [Compound 193, 5-{8-chloro-2-[3-(methylamino)355pyrrolidine-1-yl]pyrido[2,3-b]pyrazin-6-yl}-2,7-dimethylindazol-6-ol], the results for the IC50 in the data set on HiBiT-tagged MYB protein, in the data set with Target C and in the data set with HiBiT-tagged HTT protein were less than 0.1 µM, 0.1 to 1 µM and 0.1 to 1 µM, respectively.

In the case of `CNC1CCN(c2cnc3nc(-c4cc5cn(C)nc5c(C)c4O)cc(OC)c3n2)C1` (stereo not drawn) [Compound 194, 5-{8-methoxy-2-[3-(methylamino)360pyrrolidine-1-yl]pyrido[2,3-b]pyrazin-6-yl}-2,7-dimethylindazol-6-ol], the IC50 in the data set on HiBiT-tagged MYB protein, with Target C and in the data set with HiBiT-tagged HTT protein was 1 to 10 µM in each case.

Take `Cc1c(O)c(-c2ccc3nc(N4C[C@@H](C)N[C@@H](C)C4)cnc3n2)cc2cn(C)nc12` [Compound 195, 5-{2-[(3R,5S)-3,5-dimethylpiperazin-1-yl]pyrido[2,3-b]pyrazin-6-yl}-2,7-dimethylindazol-6-ol]: the IC50 in the data set with HiBiT-tagged MYB protein was 0.1 to 1 µM; with Target C, 1 to 10 µM; in the data set with HiBiT-tagged HTT protein, 1 to 10 µM. The “Effect on Cell Viability, K562” value in the data set with K562 cells is recorded as “B (100-1000 nM)”.

As for `Cc1c(O)c(-c2ccc3nc(N4CCNCC4)cnc3n2)cc2cn(C)nc12` [Compound 197, 2,7-dimethyl-5-[2-(piperazin-1-yl)pyrido[2,3-b]pyrazin-6-yl]indazol-6-ol], the IC50 with HiBiT-tagged MYB protein, in the data set on Target C and in the data set with HiBiT-tagged HTT protein was 0.1 to 1 µM in each case. Also, in the data set on K562 cells, the “Effect on Cell Viability, K562” value is “B (100-1000 nM)”.

On to `Cn1cc2cc(-c3ccc4cc(N5CC[C@@H](NC(C)(C)C)C5)cnc4n3)c(O)cc2n1` [Compound 199], for which the IC50 with HiBiT-tagged MYB protein was less than 0.1 µM; in the data set on Target C, 1 to 10 µM; in the data set on HiBiT-tagged HTT protein it was 1 to 10 µM.

On to `Cc1cn2nc(-c3ccc4cc(N(C)C5CCNCC5)cnc4n3)cc(C)c2n1` [Compound 205, 7-{2,8-dimethylimidazo[1,2-b]pyridazin-6-yl}-N-methyl-N-(piperidin-4-yl)-1,8-naphthyridin-3-amine], for which the IC50 was 1 to 10 µM with HiBiT-tagged MYB protein, greater than 10 µM with Target C and greater than 10 µM in the data set with HiBiT-tagged HTT protein.

As usually defined, the IC50 is the concentration that inhibits the measured activity by half.
